# Assay results published in US7598382B2, “Aryl substituted imidazoquinolines” (Coley Pharmaceutical Group, Inc., priority 2002, dated 2009).
# Structures can show the parent of a compound that is named as a salt.
row,Compound,melting point [°C]
1,"CCOCc1nc2c(N)nc3cc(-c4ccc(CO)cc4)ccc3c2n1CCCOC [Example 166, 2-Ethoxymethyl-1-(3-methoxypropyl)-7-(4-hydroxymethylphenyl)-1H-imidazo[4,5-c]quinolin-4-amine]",228 to 229
2,CCCNC(=O)NCCCCn1c(CCC)nc2c(N)nc3cc(-c4cccnc4)ccc3c21 (hydrate or solvate) [Example 384],184 to 185
3,CCCc1nc2c(N)nc3cc(-c4cccnc4)ccc3c2n1CCCCNC(=O)NC(C)C (hydrate or solvate) [Example 385],173 to 175
4,"CC(C)Cn1cnc2c(N)nc3ccc(-c4ccc(C(C)(C)C)cc4)cc3c21 [Example 11, 8-(4-tert-Butylphenyl)-1-isobutyl-1H-imidazo[4,5-c]quinolin-4-amine]",> 250
5,"COCCc1nc2c(N)nc3cc(-c4cccc(NS(C)(=O)=O)c4)ccc3c2n1CCCN1CCCC1=O [Example 186, N-(3-{4-Amino-2-(2-methoxyethyl)-1-[3-(2-oxopyrrolidin-1-yl)propyl]-1H-imidazo[4,5-c]quinolin-7-yl}phenyl)methanesulfonamide]",210 to 213
6,"CCOCc1nc2c(N)nc3cc(-c4cncc(CO)c4)ccc3c2n1CC1CCCCC1 [Example 439, 1-Cyclohexylmethyl-2-ethoxymethyl-7-(5-hydroxymethylpyridin-3-yl)-1H-imidazo[4,5-c]quinolin-4-amine]",240 to 241
7,"CCOCc1nc2c(N)nc3cc(-c4cccnc4)ccc3c2n1CCCCS(=O)(=O)NCc1ccc(OC)cc1 [Example 367, 4-Methoxybenzyl 4-[4-amino-2-ethoxymethyl-7-(pyridin-3-yl)-1H-imidazo[4,5-c]quinolin-1-yl]butane-1-sulfonamide]",230 to 231.5
8,"CCc1nc2c(N)nc3cc(-c4cccnc4)ccc3c2n1CC1CCN(C(=O)C(C)C)CC1 (hydrate or solvate) [Example 407, 1-{4-[4-Amino-2-ethyl-7-(pyridin-3-yl)-1H-imidazo[4,5-c]quinolin-1-ylmethyl]piperidin-1-yl}-2-methylpropan-1-one]",189 to 191
9,"CC(C)Cn1cnc2c(N)nc3ccc(-c4ccsc4)cc3c21 [Example 12, 1-Isobutyl-8-(thiophen-3-yl)-1H-imidazo[4,5-c]quinolin-4-amine]",235 to 236
10,"CCOCc1nc2c(N)nc3cc(-c4cccnc4)ccc3c2n1CC1CCNCC1 (as salt: hydrochloride) [Example 177, 2-Ethoxymethyl-1-(piperidin-4-ylmethyl)-7-(pyridin-3-yl)-1H-imidazo[4,5-c]quinolin-4-amine trihydrochloride]",> 250
11,"CCCc1nc2c(N)nc3cc(CCc4cccc(OC)c4)ccc3c2n1CC(C)C [Example 458, 7-[2-(3-Methoxyphenyl)ethyl]-1-(2-methylpropyl)-2-propyl-1H-imidazo[4,5-c]quinolin-4-amine]",155 to 157
12,"CCOCc1nc2c(N)nc3cc(-c4ccccc4)ccc3c2n1CCCOC [Example 163, 2-Ethoxymethyl-1-(3-methoxypropyl)-7-phenyl-1H-imidazo[4,5-c]quinolin-4-amine]",146 to 147
13,"CCOCc1nc2c(N)nc3cc(-n4ccnc4)ccc3c2n1CCCOC [Example 473, 2-Ethoxymethyl-7-(imidazol-1-yl)-1-(3-methoxypropyl)-1H-imidazo[4,5-c]quinolin-4-amine]",167.5 to 169
14,"CCCOc1ccc(-c2ccc3c(c2)nc(N)c2nc(COCC)n(CC(C)C)c23)cc1 [Example 107, 2-Ethoxymethyl-1-(2-methylpropyl)-7-(4-propoxyphenyl)-1H-imidazo[4,5-c]quinolin-4-amine]",209 to 210
15,"CCCc1nc2c(N)nc3cc(/C=C/c4ccc5sc(C)nc5c4)ccc3c2n1CC(C)C [Example 441, (E)-7-[2-(2-Methylbenzothiazol-5-yl)vinyl]-1-(2-methylpropyl)-2-propyl-1H-imidazo[4,5-c]quinolin-4-amine]",210 to 212
16,"CCOCc1nc2c(N)nc3cc(-c4cccc(C(=O)N5CCOCC5)c4)ccc3c2n1CC(C)(C)O [Example 130, {3-[4-Amino-2-ethoxymethyl-1-(2-hydroxy-2-methylpropyl)-1H-imidazo[4,5-c]quinolin-7-yl]phenyl}morpholin-4-ylmethanone]",152 to 154
17,"CCCCc1nc2c(N)nc3cc(-c4ccsc4)ccc3c2n1CC(C)C [Example 1, 2-Butyl-1-isobutyl-7-(thiophen-3-yl)-1H-imidazo[4,5-c]quinolin-4-amine]",229 to 230
18,"CCOCc1nc2c(N)nc3cc(-c4cccnc4)ccc3c2n1CCCCN1CCCS1(=O)=O [Example 153, 1-[4-(1,1-Dioxidoisothiazolidin-2-yl)-butyl]-2-ethoxymethyl-7-(pyridin-3-yl)-1H-imidazo[4,5-c]quinolin-4-amine]",171 to 173

row,Compound,melting point [°C]
1,"CCCCc1nc2c(N)nc3cc(-c4cccnc4)ccc3c2n1CCNC(=O)C(C)C [Example 390, N-{2-[4-Amino-2-butyl-7-(pyridin-3-yl)-1H-imidazo[4,5-c]quinolin-1-yl]ethyl}-2-methylpropanamide]",228 to 230
2,"CCOCc1nc2c(N)nc3cc(-c4cn[nH]c4)ccc3c2n1CC(C)(C)O [Example 128, 1-[4-Amino-2-ethoxymethyl-7-(1H-pyrazol-4-yl)-1H-imidazo[4,5-c]quinolin-1-yl]-2-methylpropan-2-ol]",> 250
3,"CCOCc1nc2c(N)nc3cc(-c4cncc(CO)c4)ccc3c2n1CC(C)C [Example 115, {5-[4-Amino-2-ethoxymethyl-1-(2-methylpropyl)-1H-imidazo[4,5-c]quinolin-7-yl]pyridin-3-yl}methanol]",211 to 212
4,"CCOCc1nc2c(N)nc3cc(-c4ccccc4)ccc3c2n1CC(C)(C)O [Example 131, 1-(4-Amino-2-ethoxymethyl-7-phenyl-1H-imidazo[4,5-c]quinolin-1-yl)-2-methylpropan-2-ol]",211 to 212
5,"CCOCc1nc2c(N)nc3cc(-c4ccc(OC(C)C)cc4)ccc3c2n1CCCOC [Example 173, 2-Ethoxymethyl-7-[4-(2-propoxy)phenyl]-1-(3-methoxypropyl)-1H-imidazo[4,5-c]quinolin-4-amine]",175 to 177
6,"CCOCc1nc2c(N)nc3cc(-c4cccnc4)ccc3c2n1CCN1CCN(S(C)(=O)=O)CC1 (hydrate or solvate) [Example 415, 2-Ethoxymethyl-1-{2-[4-(methanesulfonyl)piperazin-1-yl]ethyl}-7-(pyridin-3-yl)-1H-imidazo[4,5-c]quinolin-4-amine]",205 to 207
7,"CCc1nc2c(N)nc3cc(-c4ccncc4)ccc3c2n1CC(C)(C)O [Example 143, 1-[4-Amino-2-ethyl-7-(pyridin-4-yl)-1H-imidazo[4,5-c]quinolin-1-yl]-2-methylpropan-2-ol]",> 250
8,"COCc1nc2c(N)nc3cc(-c4cncc(OC)c4)ccc3c2n1CC(C)(C)O [Example 400, 1-[4-Amino-2-methoxymethyl-7-(5-methoxypyridin-3-yl)-1H-imidazo[4,5-c]quinolin-1-yl]-2-methylpropan-2-ol]",234 to 236
9,"CCOCc1nc2c(N)nc3c(-c4cccc(C(=O)N5CCOCC5)c4)cccc3c2n1CC(C)(C)O [Example 486, {3-[4-Amino-2-ethoxymethyl-1-(2-hydroxy-2-methylpropyl)-1H-imidazo[4,5-c]quinolin-6-yl]phenyl}morpholin-4-ylmethanone]",164 to 166
10,"COCCc1nc2c(N)nc3cc(-c4cccc(CO)c4)ccc3c2n1CCCN1CCCC1=O (hydrate or solvate) [Example 185, 1-{3-[4-Amino-7-(3-hydroxymethylphenyl)-2-(2-methoxyethyl)-1H-imidazo[4,5-c]quinolin-1-yl]propyl}pyrrolidin-2-one]",184 to 187
11,"CCOCc1nc2c(N)nc3cc(-c4ccc(-c5ccc6c(c5)nc(N)c5nc(COCC)n(CC(C)(C)O)c56)cc4)ccc3c2n1CC(C)(C)O [Example 474, 1-(4-Amino-7-{4-[4-amino-2-ethoxymethyl-1-(2-hydroxy-2-methylpropyl)-1H-imidazo[4,5-c]quinolin-7-yl]phenyl}-2-ethoxymethyl-1H-imidazo[4,5-c]quinolin-1-yl)-2-methylpropan-2-ol]",325 to 328
12,"CCOCc1nc2c(N)nc3ccc(Cc4ccccc4)cc3c2n1CC(C)(C)O [Example 436, 1-(4-Amino-8-benzyl-2-ethoxymethyl-1H-imidazo[4,5-c]quinolin-1-yl)-2-methylpropan-2-ol]",209 to 210
13,"CCOCc1nc2c(N)nc3cc(-c4ccccc4)ccc3c2n1CC1CCN(S(C)(=O)=O)CC1 [Example 193, 2-Ethoxymethyl-1-{[1-(methanesulfonyl)piperidin-4-yl]methyl}-7-phenyl-1H-imidazo[4,5-c]quinolin-4-amine]",224 to 225
14,"CCOc1ccccc1-c1ccc2c(c1)nc(N)c1nc(COC)n(CC(C)(C)O)c12 [Example 394, 1-[4-Amino-7-(2-ethoxyphenyl)-2-methoxymethyl-1H-imidazo[4,5-c]quinolin-1-yl]-2-methylpropan-2-ol]",173 to 175
15,"CCOCc1nc2c(N)nc3cc(-c4ccc(N(C)C)cc4)ccc3c2n1CC(C)C [Example 114, 7-(4-Dimethylaminophenyl)-2-ethoxymethyl-1-(2-methylpropyl)-1H-imidazo[4,5-c]quinolin-4-amine]",214.5 to 215.5
16,"CCCCc1nc2c(N)nc3cc(-c4cccnc4)ccc3c2n1CCN1CCCS1(=O)=O [Example 393, 1-[2-(1,1-Dioxo-1-isothiazolidin-2-yl)ethyl]-2-butyl-7-(pyridin-3-yl)-1H-imidazo[4,5-c]quinolin-4-amine]",290 to 292
17,"CCOCc1nc2c(N)nc3cc(-c4ccccc4)ccc3c2n1CC(C)(C)NC(=O)C1CCCCC1 [Example 202, Cyclohexane N-[2-(4-amino-2-ethoxymethyl-7-phenyl-1H-imidazo[4,5-c]quinolin-1-yl)-1,1-dimethylethyl]carboxamide]",195 to 198
